The values that follow are results of earlier work, collected in patent US8697043B1, “Odor suppression of volatile organic analgesic compounds and method of use” (Chattem, Inc., priority 2013, dated 2014).

For data set [1] the following is noted: at 25° C.

`CC1CCC(C(C)C)C(O)C1` (centres unmarked) [Menthol]: the Solubility in water entry was “neither menthol nor camphor are significantly soluble in water”. Further, the Vapor pressure in data set [1] is 8.5 kPa.

Take `CC12CCC(CC1=O)C2(C)C` (centres unmarked) [camphor]: the Solubility in water entry is reported as “neither menthol nor camphor are significantly soluble in water”. The Vapor pressure in data set [1] is given as 86.7 kPa.

Consider `CCO` [ethanol], for which the Vapor pressure in data set [1] is 5.9 kPa.
